Test system: actinic keratoses
Assay: Randomized, blinded patient study of topical picropodophyllin solution for actinic keratoses (lesion count in treatment area)
Format: in vivo, patients
Details: topical twice daily for 1 week
Procedure: To date, 56 patients have been studied to determine the efficacy of picropodophyllin in treating actinic keratoses. The patients were randomized into four groups, and the patients in each group were treated with a solution containing either 0.5%, 1.25%, or 2.0% picropodophyllin (w/v) in propylene glycol, or a placebo constituting only the vehicle propylene glycol. The picropodophyllin solution was prepared in 100% propylene glycol solution. The solutions were prepared aseptically following GMP protocols. The affected areas of the body variously included the scalp, face, arms, and legs. Without knowing which one of the four solutions they were applying, the subjects self-applied one of the solutions to the skin. After initial application, the subjects gently massaged the solutions into their skin. This was done twice daily for 1 week. Lesions (actinic keratosis) were palpated and visualized by a trained lesion counter who is a board certified dermatologist. The same investigator evaluated each subject at each visit for consistency. The subjects were evaluated at baseline, day 3, day 7, day 14, day 28, day 56 and day 90. Within the treatment area, the number of lesions were counted, regardless of their size. The change in the number of lesions (% decline from baseline) within the treatment area was calculated and the results are shown in the table below: […]

## COc1cc([C@@H]2c3cc4c(cc3[C@H](O)[C@H]3COC(=O)[C@@H]23)OCO4)cc(OC)c1OC [PPP, picropodophyllin]
0.50% PPP w/v in propylene glycol, 28 days
  % Decline from Baseline (number of lesions in treatment area): −56^AB %
0.50% PPP w/v in propylene glycol, 56 days
  % Decline from Baseline (number of lesions in treatment area): −82^AB %
0.50% PPP w/v in propylene glycol, 90 days
  % Decline from Baseline (number of lesions in treatment area): −90^AB %
1.25% PPP w/v in propylene glycol, 28 days
  % Decline from Baseline (number of lesions in treatment area): −53^AB %
1.25% PPP w/v in propylene glycol, 56 days
  % Decline from Baseline (number of lesions in treatment area): −73^AB %
1.25% PPP w/v in propylene glycol, 90 days
  % Decline from Baseline (number of lesions in treatment area): −65^AB %
2.00% PPP w/v in propylene glycol, 28 days
  % Decline from Baseline (number of lesions in treatment area): −17%
2.00% PPP w/v in propylene glycol, 56 days
  % Decline from Baseline (number of lesions in treatment area): −55^AB %
2.00% PPP w/v in propylene glycol, 90 days
  % Decline from Baseline (number of lesions in treatment area): −84^AB %

Source: patent publication US9907783B2, “Methods of treating skin conditions using cyclolignan compounds” (m. Alphabet 2, L.L.C., priority 2013, dated 2018)
